Data as given in patent US11214803B2, “Modulators of YAP1 expression” (Ionis Pharmaceuticals, Inc., priority 2019, dated 2022).
Strand notation (5' to 3'): a small letter for the sugar, then the base; units joined by * are phosphorothioate-linked, units joined directly phosphodiester-linked; [ ] holds rarer units or linkages, { } end groups; capitals alone tell only the bases. k = constrained ethyl (cEt); [5mC] = 5-methylcytosine; d = 2'-deoxy (DNA)

What was measured:
Yap1 mRNA [1] = assay: Dose-dependent inhibition of human Yap1 in A-431 cells (Example 8, 10,000 cells per well, RTS4814); type: cell-based; settings: for Yap1 mRNA, % UTC: A-431 cells, 10,000 cells per well; for IC50 / % UTC (Yap1 mRNA): A-431 cells
Summary of the method: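 Yap1 mRNA, normalized to RIBOGREEN total RNA and expressed as % untreated control, was read with RTS4814 about 48 h after free-uptake oligonucleotide treatment of A-431 cells at 10,000 cells/well. IC50 derived by linear regression of log/linear data.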

Yap1 mRNA [2] = assay: Antisense inhibition of human Yap1 in A-431 cells by cEt gapmers, single dose (Example 3, RTS36584); type: cell-based
Summary of the method: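 A-431 cells were treated by free uptake with 2,000 nM modified oligonucleotide (3-10-3 cEt gapmers, full phosphorothioate, 5-methylcytosines) for about 48 hours. Yap1 mRNA was quantified by real-time RT-PCR, normalized to RiboGreen total RNA, and expressed as % of untreated control; asterisked values mark oligonucleotides targeting the amplicon region.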

[3] = 31.3 nM, free uptake, approximately 48 hours, RTS4814
[4] = 125.0 nM, free uptake, approximately 48 hours, RTS4814
[5] = 500.0 nM, free uptake, approximately 48 hours, RTS4814
[6] = 2000.00 nM, free uptake, approximately 48 hours, RTS4814
[7] = free uptake, approximately 48 hours, RTS4814, linear regression on log/linear plot
[8] = Table 29, Yap1 mRNA as percent of untreated control, 3-10-3 cEt gapmers targeting SEQ ID NO.: 1, and 2
[9] = Table 28, Yap1 mRNA as percent of untreated control, 3-10-3 cEt gapmers targeting SEQ ID NO.: 1, and 2
[10] = Table 27, Yap1 mRNA by 3-10-3 cEt gapmers targeting SEQ ID NO.: 1, and 2, percent of untreated control
[11] = Table 35, Yap1 mRNA as percent of untreated control, 3-10-3 cEt gapmers targeting SEQ ID NO: 1 and 2, single dose
[12] = Table 34, Yap1 mRNA as percent of untreated control, 3-10-3 cEt gapmers targeting SEQ ID NO: 1 and 2, single dose

Substance | Yap1 mRNA, % UTC (Yap1 mRNA [1]; [3]) [% UTC] | Yap1 mRNA, % UTC (Yap1 mRNA [1]; [4]) [% UTC] | Yap1 mRNA, % UTC (Yap1 mRNA [1]; [5]) [% UTC] | Yap1 mRNA, % UTC (Yap1 mRNA [1]; [6]) [% UTC] | IC50 (Yap1 mRNA [1]; [7]) [nM] | also measured
1074607 (DNA kA*kA*kG*dG*dT*dA*dT*dA*dA*dT*d[5mC]*dA*dT*kG*kA*kT) [compound 1074607] | 45 | 22 | 10 | 5 | < 20 | YAP1 (% UTC) (Yap1 mRNA [2]; [8]): 4 % UTC
1076430 (k[5mC]*kG*kT*dT*dA*dT*dA*dA*dG*dA*dT*dG*dT*kG*k[5mC]*kT; antisense) [compound 1076430] | 42 | 14 | 6 | 4 | < 20 | YAP1 (% UTC) (Yap1 mRNA [2]; [9]): 4 % UTC
1076077 (kG*kG*kA*dT*dT*dA*dA*dA*dG*dT*dT*dT*dT*k[5mC]*kA*k[5mC]; antisense) [compound 1076077] | 53 | 19 | 9 | 5 | < 20 | YAP1 (% UTC) (Yap1 mRNA [2]; [10]): 5 % UTC
1075701 (kA*kA*kT*dT*dA*d[5mC]*dT*dA*dG*dA*dG*dG*d[5mC]*kT*kT*k[5mC]; antisense) [compound 1075701] |  |  |  |  |  | % UTC (Yap1 mRNA) (Yap1 mRNA [1]; 31.3 nM): 84 % UTC; % UTC (Yap1 mRNA) (Yap1 mRNA [1]; 125.0 nM): 34 % UTC; % UTC (Yap1 mRNA) (Yap1 mRNA [1]; 500.0 nM): 11 % UTC; % UTC (Yap1 mRNA) (Yap1 mRNA [1]; 2000.00 nM): 6 % UTC; IC50 (Yap1 mRNA [1]; Yap1 mRNA): 100 nM; YAP1 (% UTC) (Yap1 mRNA [2]; [11]): 3 % UTC
1074413 (kA*k[5mC]*kT*dG*dT*dG*dA*dA*dA*dG*dA*dG*dG*kT*k[5mC]*kA; antisense) [compound 1074413] | 50 | 19 | 6 | 3 | < 20 | YAP1 (% UTC) (Yap1 mRNA [2]; [10]): 4 % UTC
1074676 (antisense k[5mC]*kA*kA*dA*dT*dT*dA*dT*dA*dG*dG*d[5mC]*dA*k[5mC]*kT*k[5mC]) [compound 1074676] |  |  |  |  |  | % UTC (Yap1 mRNA) (Yap1 mRNA [1]; 31.3 nM): 54 % UTC; % UTC (Yap1 mRNA) (Yap1 mRNA [1]; 125.0 nM): 16 % UTC; % UTC (Yap1 mRNA) (Yap1 mRNA [1]; 500.0 nM): 6 % UTC; % UTC (Yap1 mRNA) (Yap1 mRNA [1]; 2000.00 nM): 5 % UTC; IC50 (Yap1 mRNA [1]; Yap1 mRNA): < 20 nM; YAP1 (% UTC) (Yap1 mRNA [2]; [12]): 4 % UTC
1076015 (kA*kT*kT*dT*dA*dG*dT*dT*dG*dG*dT*dT*dG*kT*kT*kA; antisense) [compound 1076015] | 70 | 37 | 15 | 9 | 100 | YAP1 (% UTC) (Yap1 mRNA [2]; [8]): 8 % UTC
1076526 (kG*kT*kA*dG*dA*dA*dA*dG*dA*dT*dG*dG*d[5mC]*kT*k[5mC]*kA; antisense) [compound 1076526] | 44 | 9 | 3 | 2 | < 20 | YAP1 (% UTC) (Yap1 mRNA [2]; [9]): 3 % UTC
1074639 (antisense kT*kA*kG*dA*dT*dT*dT*dT*dG*dT*dA*dA*dT*kT*kG*kG) [compound 1074639] | 46 | 18 | 7 | 5 | < 20 | YAP1 (% UTC) (Yap1 mRNA [2]; [8]): 3 % UTC
1074452 (kT*kG*kA*d[5mC]*dT*dA*dA*dT*dG*dA*dT*dA*dG*k[5mC]*kA*k[5mC]; antisense) [compound 1074452] |  |  |  |  |  | % UTC (Yap1 mRNA) (Yap1 mRNA [1]; 31.3 nM): 88 % UTC; % UTC (Yap1 mRNA) (Yap1 mRNA [1]; 125.0 nM): 28 % UTC; % UTC (Yap1 mRNA) (Yap1 mRNA [1]; 500.0 nM): 9 % UTC; % UTC (Yap1 mRNA) (Yap1 mRNA [1]; 2000.00 nM): 5 % UTC; IC50 (Yap1 mRNA [1]; Yap1 mRNA): 100 nM; YAP1 (% UTC) (Yap1 mRNA [2]; [12]): 3 % UTC
1076340 (antisense kT*kA*kA*dT*dA*dT*d[5mC]*d[5mC]*dT*d[5mC]*dA*dT*d[5mC]*kA*kG*k[5mC]) [compound 1076340] |  |  |  |  |  | % UTC (Yap1 mRNA) (Yap1 mRNA [1]; 31.3 nM): 79 % UTC; % UTC (Yap1 mRNA) (Yap1 mRNA [1]; 125.0 nM): 42 % UTC; % UTC (Yap1 mRNA) (Yap1 mRNA [1]; 500.0 nM): 17 % UTC; % UTC (Yap1 mRNA) (Yap1 mRNA [1]; 2000.00 nM): 11 % UTC; IC50 (Yap1 mRNA [1]; Yap1 mRNA): 100 nM; YAP1 (% UTC) (Yap1 mRNA [2]; [12]): 8 % UTC
1076461 (kG*kA*kT*dT*dA*dA*dT*dA*dT*dA*dG*d[5mC]*d[5mC]*k[5mC]*k[5mC]*kT; antisense) [compound 1076461] | 65 | 24 | 7 | 3 | 40 | YAP1 (% UTC) (Yap1 mRNA [2]; [10]): 3 % UTC
1075093 (k[5mC]*kA*kA*dA*dG*dT*dA*dA*dG*dG*dT*dA*dT*kG*kA*kG; antisense) [compound 1075093] |  |  |  |  |  | % UTC (Yap1 mRNA) (Yap1 mRNA [1]; 31.3 nM): 74 % UTC; % UTC (Yap1 mRNA) (Yap1 mRNA [1]; 125.0 nM): 26 % UTC; % UTC (Yap1 mRNA) (Yap1 mRNA [1]; 500.0 nM): 7 % UTC; % UTC (Yap1 mRNA) (Yap1 mRNA [1]; 2000.00 nM): 4 % UTC; IC50 (Yap1 mRNA [1]; Yap1 mRNA): 100 nM; YAP1 (% UTC) (Yap1 mRNA [2]; [11]): 3 % UTC
1075118 (k[5mC]*kT*kA*dT*dT*dT*dA*d[5mC]*dT*d[5mC]*dT*dG*dT*k[5mC]*kA*k[5mC]; antisense) [compound 1075118] | 85 | 36 | 8 | 4 | 100 | YAP1 (% UTC) (Yap1 mRNA [2]; [9]): 4 % UTC
1075246 (kG*kA*kT*dA*dA*d[5mC]*dT*dA*dG*dT*dA*dA*d[5mC]*k[5mC]*kG*kT; antisense) [compound 1075246] | 70 | 34 | 12 | 6 | 100 | YAP1 (% UTC) (Yap1 mRNA [2]; [9]): 6 % UTC
1074606 (DNA kG*kG*kT*dA*dT*dA*dA*dT*d[5mC]*dA*dT*dG*dA*kT*kT*kA) [compound 1074606] | 31 | 10 | 6 | 4 | < 20 | YAP1 (% UTC) (Yap1 mRNA [2]; [9]): 4 % UTC
1076460 (kT*kA*kA*dT*dA*dT*dA*dG*d[5mC]*d[5mC]*d[5mC]*d[5mC]*dT*kT*k[5mC]*kA; antisense) [compound 1076460] | 79 | 53 | 25 | 12 | 200 | YAP1 (% UTC) (Yap1 mRNA [2]; Table 26, Yap1 mRNA by 3-10-3 cEt gapmers targeting SEQ ID NO.: 1, and 2, percent of untreated control): 7 % UTC
1074445 (kT*kG*kA*dT*dA*dG*d[5mC]*dA*d[5mC]*dT*dA*dG*dG*kA*kG*kG; antisense) [compound 1074445] | 57 | 19 | 8 | 6 | < 20 | YAP1 (% UTC) (Yap1 mRNA [2]; [10]): 6 % UTC
1076525 (kG*kA*kA*dT*dT*dT*dA*dT*dA*dT*d[5mC]*dA*dG*kG*kT*k[5mC]; antisense) [compound 1076525] | 43 | 14 | 5 | 2 | < 20 | YAP1 (% UTC) (Yap1 mRNA [2]; [10]): 3 % UTC
958420 (antisense kT*kT*k[5mC]*dA*dT*dA*dA*dT*d[5mC]*dT*dG*dA*d[5mC]*kT*kA*kG) [Compound 958420] |  |  |  |  |  | YAP1 (% UTC) (Yap1 mRNA [2]; Table 8, A-431 cells, 5,000 cells per well, free uptake, 2,000 nM, approximately 48 hours, RTS36584, normalized to RIBOGREEN, Yap1 mRNA relative to untreated control cells): 66 % UTC
958589 (kG*kT*kA*dA*dA*dG*dG*dA*dA*dG*dA*dT*d[5mC]*kT*k[5mC]*k[5mC]; antisense) [Compound 958589] |  |  |  |  |  | YAP1 (% UTC) (Yap1 mRNA [2]; Table 12, A-431 cells, 5,000 cells per well, free uptake, 2,000 nM modified oligonucleotide, approx. 48 hours, RTS36584, normalized to RIBOGREEN, Yap1 mRNA relative to untreated control cells): 4 % UTC
